Structures can show the parent of a compound that is named as a salt.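 Growth conditions: 96-well plates. Treatment: test compound, 48 hours, 5 concentrations. Analysis: linear interpolation between bracketing concentrations; unreached endpoints set to highest concentration. The concentration for 50% growth inhibition is given as GI50.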 The source made the active and inactive calls. Cut-off read from the data, not from the text of the source: active = GI50 up to about 1.1 µM and inactive = higher.

Results on eleven compounds are retold here after ChEMBL document CHEMBL1201862, “PubChem BioAssay data set” (2004).

Some test systems named below: RXF 393; ACHN; MCF7; 786-0; A549; CAKI-1; OVCAR-8; K562; IGROV-1; UACC-62; SF-295; KM12; HOP-92; U-251; BT-549; SK-MEL-5; HT-29; M14; Malme-3M; SNB-75.
Holding throughout (assay): NCI tumour cell line growth inhibition, 48 h

With `Clc1ccc2c(c1)N(CCCN1CCCC13CCCCC3)c1ccccc1S2`, the GI50 was 5.93 µM (inactive) in the test with RXF 393; 20.3 µM (inactive) with ACHN; 14.3 µM (inactive) in the test on MCF7; 10.8 µM (inactive) with 786-0; 17.3 µM (inactive) in the test with A549; 24.2 µM (inactive) with CAKI-1. For the same compound, the GI50 in the test with OVCAR-8 is 16.5 µM (inactive); in the test with K562, 3.95 µM (inactive); with IGROV-1, 12.3 µM (inactive); in the test on UACC-62, 16.6 µM (inactive); with SF-295, 15.6 µM (inactive); with KM12, 13.8 µM (inactive). For the same compound, the GI50 in the test on HOP-92 was 10.4 µM (inactive); in the test on U-251 it was 10.2 µM (inactive); with BT-549, 14.9 µM (inactive); with SK-MEL-5, > 41.9 µM (inactive); in the test with HT-29 it was 4.33 µM (inactive); in the test with M14, 13.6 µM (inactive). The GI50 in the test with Malme-3M is 14.2 µM (inactive).

As to `c1ccc2c(c1)nc1n2CCCn2ccnc2-1`, the GI50 in the test on RXF 393 was > 100 µM (inactive); with ACHN, 73.6 µM (inactive); in the test on MCF7, > 100 µM (inactive); in the test with 786-0, > 100 µM (inactive); with A549 it was > 100 µM (inactive); in the test with OVCAR-8, 67.5 µM (inactive). Moreover, the GI50 with K562, with IGROV-1, with UACC-62, in the test on SF-295, in the test on KM12 and in the test with HOP-92 was > 100 µM (inactive) in each case. Besides, the GI50 is > 100 µM (inactive) with SNB-75; > 100 µM (inactive) with U-251; > 100 µM (inactive) with BT-549; 87.3 µM (inactive) with SK-MEL-5; > 100 µM (inactive) with HT-29; > 100 µM (inactive) in the test on M14. The GI50 with Malme-3M was > 100 µM (inactive).

On to `O=C(Nc1nc(C23CC4CC(CC(C4)C2)C3)cs1)c1cc2cc(Br)cc(Br)c2oc1=O`, for which the GI50 is 31 µM (inactive) in the test on RXF 393; > 100 µM (inactive) in the test on ACHN; > 100 µM (inactive) in the test with MCF7; 32.9 µM (inactive) in the test with 786-0; 53 µM (inactive) in the test with A549; > 100 µM (inactive) in the test on CAKI-1. The GI50 in the test with OVCAR-8 is 34.4 µM (inactive); in the test with K562, 42.5 µM (inactive); in the test on IGROV-1 it was > 100 µM (inactive); in the test with UACC-62 it was > 100 µM (inactive); with SF-295, 40.6 µM (inactive); with KM12 it was > 100 µM (inactive). Also, the GI50 was 46 µM (inactive) in the test with HOP-92; 26.9 µM (inactive) in the test with SNB-75; 20.3 µM (inactive) with U-251; > 100 µM (inactive) in the test with BT-549; > 100 µM (inactive) in the test with SK-MEL-5; > 100 µM (inactive) in the test on HT-29. Also, in the test with Malme-3M, the GI50 was > 100 µM (inactive).

As for `c1ccc(Nc2nnc(Cn3ccc4ccccc43)s2)cc1`, the GI50 in the test with RXF 393 was 73.5 µM (inactive); with ACHN, 39.8 µM (inactive); in the test on MCF7 it was 40.3 µM (inactive); with 786-0, 52.7 µM (inactive); in the test on A549, 32.4 µM (inactive); in the test on CAKI-1 it was 22.4 µM (inactive). The GI50 was 64.6 µM (inactive) with OVCAR-8; 31.2 µM (inactive) in the test on K562; 46.9 µM (inactive) with IGROV-1; 88.5 µM (inactive) with UACC-62; 15.9 µM (inactive) in the test with SF-295; 34.5 µM (inactive) with KM12. In addition, the GI50 with HOP-92 is 54.7 µM (inactive); in the test with SNB-75 it was 20.9 µM (inactive); with U-251, 42.4 µM (inactive); with BT-549, > 100 µM (inactive); in the test on SK-MEL-5, 57.4 µM (inactive); in the test with HT-29, 57 µM (inactive). Besides, the GI50 in the test with M14 was 59.8 µM (inactive).

For `Cc1c(F)c(N)c2c(=O)cc(-c3ccc(NC(=O)C(N)CCCNC(=N)N)c(F)c3)oc2c1F` (stereo not given), the GI50 in the test with RXF 393 is 21.6 µM (inactive); in the test on ACHN it was 19.7 µM (inactive); in the test with MCF7, 0.0893 µM (active); in the test with 786-0 it was 29 µM (inactive); in the test with A549 it was 3.68 µM (inactive); in the test on CAKI-1, 0.0792 µM (active). The GI50 with OVCAR-8 was 32.1 µM (inactive); in the test on IGROV-1, 0.0759 µM (active); in the test on SF-295, > 37.6 µM (inactive); with KM12, 27 µM (inactive); in the test on HOP-92, 49.5 µM (inactive); in the test on U-251, 3.6 µM (inactive). Also, the GI50 with BT-549 was 21.8 µM (inactive); in the test with SK-MEL-5 it was 19.7 µM (inactive); with HT-29, > 71.8 µM (inactive); in the test on M14 it was 31.7 µM (inactive); in the test on Malme-3M, 27.5 µM (inactive).

Regarding `C/N=c1/oc2ccccc2cc1C(N)=O`, the GI50 was > 100 µM (inactive) in the test on RXF 393; > 100 µM (inactive) in the test with ACHN; 87.7 µM (inactive) in the test with MCF7; > 100 µM (inactive) with 786-0; > 100 µM (inactive) in the test on A549; > 100 µM (inactive) in the test on CAKI-1. In addition, the GI50 is > 100 µM (inactive) in the test on OVCAR-8; > 100 µM (inactive) in the test on K562; 53.3 µM (inactive) in the test on IGROV-1; 64.1 µM (inactive) with UACC-62; > 100 µM (inactive) in the test with SF-295; > 100 µM (inactive) in the test on KM12. Besides, the GI50 in the test on HOP-92, in the test with SNB-75, in the test with U-251, with BT-549, in the test on SK-MEL-5 and with HT-29 was > 100 µM (inactive) each time. In addition, the GI50 in the test on M14 is > 100 µM (inactive).

With `COc1ccccc1NC(=O)CC(=O)N1N=C(N2c3ccccc3Sc3ccccc32)CC1c1ccccc1` (stereo not given), the GI50 in the test with RXF 393, with ACHN, with MCF7, in the test on 786-0, in the test on A549 and with CAKI-1 was > 100 µM (inactive) in each case. Moreover, the GI50 in the test on OVCAR-8, with K562, with IGROV-1, with UACC-62, in the test with SF-295 and with KM12 was > 100 µM (inactive) throughout. Also, the GI50 in the test with HOP-92, in the test on SNB-75, in the test with U-251, in the test with BT-549, with SK-MEL-5 and in the test on HT-29 was > 100 µM (inactive) each time. Moreover, the GI50 with M14 was > 100 µM (inactive).

Turning to `O=C1C(Cl)=C(N(C(=O)c2ccccc2)C(=O)c2ccccc2)C(=O)c2ccccc21`, the GI50 was 3.66 µM (inactive) in the test on RXF 393; 3.17 µM (inactive) in the test on ACHN; 10.1 µM (inactive) with MCF7; 14.5 µM (inactive) with 786-0; 16.4 µM (inactive) in the test on A549; 10.5 µM (inactive) in the test with CAKI-1. For the same compound, the GI50 in the test on OVCAR-8 is 54 µM (inactive); in the test with K562 it was 3.4 µM (inactive); in the test with IGROV-1 it was 19.4 µM (inactive); in the test with UACC-62, 5.12 µM (inactive); with SF-295, 28.2 µM (inactive); in the test on KM12, 3.38 µM (inactive). The GI50 is 13.1 µM (inactive) with HOP-92; 3.68 µM (inactive) in the test on SNB-75; 5.98 µM (inactive) with U-251; 9.04 µM (inactive) in the test on BT-549; 3.6 µM (inactive) with SK-MEL-5; 24.7 µM (inactive) with HT-29. Moreover, the GI50 in the test with M14 is 14.4 µM (inactive).

Take `CCOC(=O)C1C(=O)C=C(c2cc(C)ccc2O)CC1c1cccc(Br)c1` (stereo not given): the GI50 with RXF 393 is 14.4 µM (inactive); with ACHN it was 18.7 µM (inactive); with MCF7 it was 14.9 µM (inactive); in the test on 786-0 it was 17.6 µM (inactive); in the test on A549, 20.1 µM (inactive); with CAKI-1, 21.9 µM (inactive). Moreover, the GI50 was 30 µM (inactive) in the test with OVCAR-8; 11.7 µM (inactive) in the test with K562; 12.6 µM (inactive) in the test on IGROV-1; 14 µM (inactive) in the test on UACC-62; 13.6 µM (inactive) in the test on SF-295; 13.2 µM (inactive) in the test with KM12. Also, the GI50 was 10.4 µM (inactive) with HOP-92; 16.1 µM (inactive) in the test with U-251; 24.9 µM (inactive) in the test on BT-549; 14.2 µM (inactive) in the test on SK-MEL-5; 18.9 µM (inactive) with HT-29; 17.4 µM (inactive) with M14. Further, the GI50 with Malme-3M was 16.3 µM (inactive).

On to `O=C(CCl)Nc1cc(Cl)c(Cl)cc1Cl`, for which the GI50 with RXF 393 is 2.65 µM (inactive); in the test with ACHN, 2.22 µM (inactive); with MCF7 it was 2.07 µM (inactive); in the test with 786-0 it was 1.51 µM (inactive); with A549, 2.35 µM (inactive); in the test on CAKI-1, 2.96 µM (inactive). In addition, the GI50 is 1.73 µM (inactive) in the test on OVCAR-8; 3.66 µM (inactive) in the test on K562; 1.81 µM (inactive) in the test with IGROV-1; 1.93 µM (inactive) in the test on UACC-62; 5.26 µM (inactive) in the test on SF-295; 0.307 µM (active) in the test with KM12. The GI50 is 2.01 µM (inactive) in the test with U-251; 1.77 µM (inactive) in the test with BT-549; 1.78 µM (inactive) in the test on SK-MEL-5; 2 µM (inactive) with HT-29; 1.48 µM (inactive) in the test with M14; 1.41 µM (inactive) in the test on Malme-3M.

Consider `NCCc1cc(O)c(O)cc1O` [OXIDOPAMINE HYDROCHLORIDE], for which the GI50 was 51.4 µM (inactive) in the test on RXF 393; 20.9 µM (inactive) in the test on ACHN; 25.3 µM (inactive) in the test on MCF7; 18.6 µM (inactive) in the test with 786-0; 35 µM (inactive) in the test with A549; 18.6 µM (inactive) in the test on CAKI-1. Besides, the GI50 was 32.4 µM (inactive) in the test with OVCAR-8; 21.5 µM (inactive) in the test with K562; 19.3 µM (inactive) with IGROV-1; 31.2 µM (inactive) with UACC-62; 24 µM (inactive) with SF-295; 17.5 µM (inactive) with KM12. Besides, the GI50 with SNB-75 is 23.7 µM (inactive); in the test with BT-549, 16.6 µM (inactive); in the test on SK-MEL-5, 18.5 µM (inactive); in the test on HT-29, 32.3 µM (inactive); in the test on M14, 20 µM (inactive); in the test on Malme-3M, > 100 µM (inactive).
